Measurements: BindingDB's records for doi:10.1021/jm050513m (The University of Texas At Houston, 2005)
Square brackets hold non-standard residues; d marks the D form. Peptide text beside a SMILES is read from it. * marks the point of attachment. ξ: configuration not given here. pY = N[C@@H](Cc1ccc(OP(=O)(O)O)cc1)C(=O)O; NH(1R-phenylethyl) = C[C@@H](N*)c1ccccc1; NH(1S-phenylethyl) = C[C@H](N*)c1ccccc1; Met(O2) = CS(=O)(=O)CC[C@H](N)C(=O)O; NMeThr(3ξ) = CN[C@H](C(=O)O)C(C)O; Met(O) = CS(=O)CC[C@H](N)C(=O)O; Ile(3ξ) = CCC(C)[C@H](N)C(=O)O; Thr(3ξ) = CC(O)[C@H](N)C(=O)O; Ahx = NCCCCCC(=O)O; NEt2 = CCN(CC)*

Molecular target: Signal transducer and activator of transcription 3 (Mus musculus, UniProt P42227)
Sequence (P42227 whole entry): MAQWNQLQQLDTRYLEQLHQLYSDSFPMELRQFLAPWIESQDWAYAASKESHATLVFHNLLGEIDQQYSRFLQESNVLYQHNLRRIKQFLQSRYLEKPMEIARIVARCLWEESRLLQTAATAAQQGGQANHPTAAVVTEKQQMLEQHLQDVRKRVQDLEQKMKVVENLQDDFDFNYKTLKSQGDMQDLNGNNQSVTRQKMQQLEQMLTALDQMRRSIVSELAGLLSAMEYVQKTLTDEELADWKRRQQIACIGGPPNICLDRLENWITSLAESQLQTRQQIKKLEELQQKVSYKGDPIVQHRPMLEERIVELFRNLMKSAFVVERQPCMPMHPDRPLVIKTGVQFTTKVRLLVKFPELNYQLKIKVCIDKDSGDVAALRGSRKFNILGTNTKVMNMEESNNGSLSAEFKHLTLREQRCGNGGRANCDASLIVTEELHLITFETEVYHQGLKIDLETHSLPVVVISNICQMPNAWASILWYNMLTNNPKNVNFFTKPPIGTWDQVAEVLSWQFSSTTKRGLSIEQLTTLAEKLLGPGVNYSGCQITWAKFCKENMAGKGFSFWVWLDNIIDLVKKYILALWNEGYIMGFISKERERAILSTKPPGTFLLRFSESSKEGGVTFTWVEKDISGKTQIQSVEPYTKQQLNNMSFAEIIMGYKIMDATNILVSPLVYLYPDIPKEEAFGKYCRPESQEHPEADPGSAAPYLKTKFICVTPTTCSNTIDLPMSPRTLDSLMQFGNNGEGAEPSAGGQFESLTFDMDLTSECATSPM
Assay: Fluorescence Polarization Assay
Protocol: Fluorescence polarization (FP) binding assay is utilizing the intrinsic property of the fluorescent probe, which will have low polarization value when free in solution. On binding to a target, the polarization of the probe will increase. Reaction mixtures of full length STAT3 alpha and the probe were placed in wells of a 96-well microtiter plate. The test peptide solution was added to each well. Fluorescence polarization was then read in a Tecan Polarian plate reader. The IC50 values were obtained from nonlinear regression analysis in the one-site competition mode. Peptides were assayed three times using three separate Stat3-probe preparations. IC50 values are reported as the mean of three IC50 values +/- the standard deviation.

SMILES	IC50 [µM]	IC50 (pH 7.5, 22 °C) [µM]
CC(=O)N[C@@H](Cc1ccc(OP(=O)(O)O)cc1)C(=O)N[C@@H](CC(C)C)C(=O)N1CCC[C@H]1C(=O)NCCCCCC(N)=O [4-[(2S)-2-{[(2S)-1-[(2S)-2-[(5-carbamoylpentyl)carbamoyl]pyrrolidin-1-yl]-4-methyl-1-oxopentan-2-yl]carbamoyl}-2-acetamidoethyl]phenoxyphosphonic acid] (Ac-[pY]LP[Ahx]-NH2)	9.78	
CC(=O)N[C@@H](Cc1ccc(OP(=O)(O)O)cc1)C(=O)N[C@@H](CC(C)C)C(=O)N1CCC[C@H]1C(=O)N1CCC(CC(N)=O)C1 (stereo partly drawn) [4-[(2S)-2-{[(2S)-1-[(2S)-2-{[3-(carbamoylmethyl)pyrrolidin-1-yl]carbonyl}pyrrolidin-1-yl]-4-methyl-1-oxopentan-2-yl]carbamoyl}-2-acetamidoethyl]phenoxyphosphonic acid]	1.69	
CC(=O)N[C@@H](Cc1ccc(OP(=O)(O)O)cc1)C(=O)N[C@@H](CC(C)C)C(=O)N1CCC[C@H]1C(=O)N1CCN(CC(N)=O)CC1 [4-[(2S)-2-{[(2S)-1-[(2S)-2-{[4-(carbamoylmethyl)piperazin-1-yl]carbonyl}pyrrolidin-1-yl]-4-methyl-1-oxopentan-2-yl]carbamoyl}-2-acetamidoethyl]phenoxyphosphonic acid]	1.4	
CCN(CC)C(=O)[C@H](CCC(N)=O)NC(=O)[C@@H]1CCCN1C(=O)[C@H](CC(C)C)NC(=O)[C@H](Cc1ccc(OP(=O)(O)O)cc1)NC(C)=O [4-[(2S)-2-{[(2S)-1-[(2S)-2-{[(1S)-3-carbamoyl-1-(diethylcarbamoyl)propyl]carbamoyl}pyrrolidin-1-yl]-4-methyl-1-oxopentan-2-yl]carbamoyl}-2-acetamidoethyl]phenoxyphosphonic acid] (Ac-[pY]LPQ-NEt2)	4.22	
CNC(=O)[C@H](CCC(N)=O)NC(=O)[C@@H]1CCCN1C(=O)[C@H](CC(C)C)NC(=O)[C@H](Cc1ccc(OP(=O)(O)O)cc1)NC(C)=O [4-[(2S)-2-{[(2S)-1-[(2S)-2-{[(1S)-3-carbamoyl-1-(methylcarbamoyl)propyl]carbamoyl}pyrrolidin-1-yl]-4-methyl-1-oxopentan-2-yl]carbamoyl}-2-acetamidoethyl]phenoxyphosphonic acid] (Ac-[pY]LPQ-NHMe)	0.882	
CC(=O)N[C@@H](Cc1ccc(OP(=O)(O)O)cc1)C(=O)N[C@@H](CC(C)C)C(=O)N1CCC[C@H]1C(=O)N[C@@H](CCC(N)=O)C(=O)N[C@H](C)c1ccccc1 [4-[(2S)-2-{[(2S)-1-[(2S)-2-{[(1S)-3-carbamoyl-1-{[(1R)-1-phenylethyl]carbamoyl}propyl]carbamoyl}pyrrolidin-1-yl]-4-methyl-1-oxopentan-2-yl]carbamoyl}-2-acetamidoethyl]phenoxyphosphonic acid] (Ac-[pY]LPQ-{NH(1R-phenylethyl)})	0.801	
CC(=O)N[C@@H](Cc1ccc(OP(=O)(O)O)cc1)C(=O)N[C@@H](CC(C)C)C(=O)N1CCC[C@H]1C(=O)N[C@@H](CCC(N)=O)C(=O)N[C@@H](C)c1ccccc1 [4-[(2S)-2-{[(2S)-1-[(2S)-2-{[(1S)-3-carbamoyl-1-{[(1S)-1-phenylethyl]carbamoyl}propyl]carbamoyl}pyrrolidin-1-yl]-4-methyl-1-oxopentan-2-yl]carbamoyl}-2-acetamidoethyl]phenoxyphosphonic acid] (Ac-[pY]LPQ-{NH(1S-phenylethyl)})	0.596	

Second part, the molecule after the results:

IC50 [µM]	IC50 (pH 7.5, 22 °C) [µM]	SMILES
	80	CC(=O)N[C@@H](Cc1ccc(OP(=O)(O)O)cc1)C(=O)N[C@@H](CC(C)C)C(=O)N1CCC[C@H]1C(=O)N[C@@H](CCC(=O)N(C)C)C(=O)N[C@H](C(N)=O)C(C)O (stereo partly drawn) [4-[(2S)-2-{[(2S)-1-[(2S)-2-{[(1S)-1-{[(1S,2S)-1-carbamoyl-2-hydroxypropyl]carbamoyl}-3-(dimethylcarbamoyl)propyl]carbamoyl}pyrrolidin-1-yl]-4-methyl-1-oxopentan-2-yl]carbamoyl}-2-acetamidoethyl]phenoxyphosphonic acid] (Ac-[pY]LPE(NMe2)[Thr(3ξ)]-NH2)
	18.1	CNC(=O)CC[C@H](NC(=O)[C@@H]1CCCN1C(=O)[C@H](CC(C)C)NC(=O)[C@H](Cc1ccc(OP(=O)(O)O)cc1)NC(C)=O)C(=O)N[C@H](C(N)=O)C(C)O (stereo partly drawn) [4-[(2S)-2-{[(2S)-1-[(2S)-2-{[(1S)-1-{[(1S,2S)-1-carbamoyl-2-hydroxypropyl]carbamoyl}-3-(methylcarbamoyl)propyl]carbamoyl}pyrrolidin-1-yl]-4-methyl-1-oxopentan-2-yl]carbamoyl}-2-acetamidoethyl]phenoxyphosphonic acid] (Ac-[pY]LPE(NHMe)[Thr(3ξ)]-NH2)
	9.87	CC(=O)N[C@@H](Cc1ccc(OP(=O)(O)O)cc1)C(=O)N[C@@H](CC(C)C)C(=O)N1CCC[C@H]1C(=O)N[C@@H](CC[S+](C)[O-])C(=O)N[C@H](C(N)=O)C(C)O (stereo partly drawn) [4-[(2S)-2-{[(2S)-1-[(2S)-2-{[(1S)-1-{[(1S,2S)-1-carbamoyl-2-hydroxypropyl]carbamoyl}-3-methanesulfinylpropyl]carbamoyl}pyrrolidin-1-yl]-4-methyl-1-oxopentan-2-yl]carbamoyl}-2-acetamidoethyl]phenoxyphosphonic acid] (Ac-[pY]LP[Met(O)][Thr(3ξ)]-NH2)
	13.9	CC(=O)N[C@@H](Cc1ccc(OP(=O)(O)O)cc1)C(=O)N[C@@H](CC(C)C)C(=O)N1CCC[C@H]1C(=O)N[C@@H](CCS(C)(=O)=O)C(=O)N[C@H](C(N)=O)C(C)O (stereo partly drawn) [4-[(2S)-2-{[(2S)-1-[(2S)-2-{[(1S)-1-{[(1S,2S)-1-carbamoyl-2-hydroxypropyl]carbamoyl}-3-methanesulfonylpropyl]carbamoyl}pyrrolidin-1-yl]-4-methyl-1-oxopentan-2-yl]carbamoyl}-2-acetamidoethyl]phenoxyphosphonic acid] (Ac-[pY]LP[Met(O2)][Thr(3ξ)]-NH2)
1.85		CC(=O)N[C@@H](Cc1ccc(OP(=O)(O)O)cc1)C(=O)N[C@@H](CC(C)C)C(=O)N1CCC[C@H]1C(=O)N[C@@H](CCC(N)=O)C(=O)N(C)C [4-[(2S)-2-{[(2S)-1-[(2S)-2-{[(1S)-3-carbamoyl-1-(dimethylcarbamoyl)propyl]carbamoyl}pyrrolidin-1-yl]-4-methyl-1-oxopentan-2-yl]carbamoyl}-2-acetamidoethyl]phenoxyphosphonic acid] (Ac-[pY]LPQ-NMe2)
	1.07	CCC(C)[C@H](NC(=O)[C@H](Cc1ccc(OP(=O)(O)O)cc1)NC(C)=O)C(=O)N1CCC[C@H]1C(=O)N[C@@H](CCC(N)=O)C(=O)N[C@H](C(N)=O)C(C)O (stereo partly drawn) [4-[(2S)-2-{[(2S)-1-[(2S)-2-{[(1S)-3-carbamoyl-1-{[(1S)-1-carbamoyl-2-hydroxypropyl]carbamoyl}propyl]carbamoyl}pyrrolidin-1-yl]-3-methyl-1-oxopentan-2-yl]carbamoyl}-2-acetamidoethyl]phenoxyphosphonic acid] (Ac-[pY][Ile(3ξ)]PQ[Thr(3ξ)]-NH2)
1.22		CC(=O)N[C@@H](Cc1ccc(OP(=O)(O)O)cc1)C(=O)N[C@@H](CC(C)C)C(=O)N1CCC[C@H]1C(=O)N[C@@H](CCC(N)=O)C(=O)N(C)[C@H](C(N)=O)C(C)O (stereo partly drawn) [4-[(2S)-2-{[(2S)-1-[(2S)-2-{[(1S)-3-carbamoyl-1-{[(1S,2S)-1-carbamoyl-2-hydroxypropyl](methyl)carbamoyl}propyl]carbamoyl}pyrrolidin-1-yl]-4-methyl-1-oxopentan-2-yl]carbamoyl}-2-acetamidoethyl]phenoxyphosphonic acid] (Ac-[pY]LPQ[NMeThr(3ξ)]-NH2)
